{"source": "paper PMC7345095", "about": "“New Synthetic Nitro-Pyrrolomycins as Promising Antibacterial and Anticancer Agents” (Antibiotics, 2020)", "origin": "cited, not measured here"}
{"system": "Escherichia coli", "set-up": "method as in PMID 31405863, PMID 15730262", "details": "natural PMs; cited from earlier work"}
{"molecule": "O=[N+]([O-])c1c([C@@H](O)c2cc(Cl)cc(Cl)c2O)[nH]c(Cl)c1Cl", "note": "[PM-G]", "MIC against Escherichia coli": "more than 300 μM"}
{"molecule": "COc1c(Cl)cc(Cl)cc1[C@H](O)c1[nH]c(Cl)c(Cl)c1[N+](=O)[O-]", "note": "[PM-H]", "MIC against Escherichia coli": "more than 300 μM"}
{"molecule": "COc1c(Cl)cc(Cl)cc1C(=O)c1cc(Cl)c(Cl)[nH]1", "note": "[PM-I]", "MIC against Escherichia coli": "more than 300 μM"}
{"molecule": "COc1c(Cl)cc(Cl)cc1C(=O)c1[nH]c(Cl)c(Cl)c1Cl", "note": "[PM-J]", "MIC against Escherichia coli": "more than 300 μM"}
